These are literature values, as cited in patent US11439617B2, “Polymeric compositions of monomethyl fumarate and their use in treating relapsing remitting multiple sclerosis and psoriasis” (priority 2017, dated 2022).

Structures can show the parent of a compound that is named as a salt.

The conditions of the series: in vivo.

As for `COC(=O)/C=C/C(=O)O` [MMF, monomethyl fumarate], the Tmax entry was “about 2.5 hours” and the half-life in circulation was 36 h.
